Where two headings read alike, the source gives them in different places.
Columns and labels:
human GIP receptor = target: T1, human GIP receptor (Homo sapiens, UniProt P48546); experiment: biochemical; type: binding
T1 construct: expressed in transfected cells; host or cells: HEK293 (HEK-GIPR), membranes
T1 sequence (P48546 22-466): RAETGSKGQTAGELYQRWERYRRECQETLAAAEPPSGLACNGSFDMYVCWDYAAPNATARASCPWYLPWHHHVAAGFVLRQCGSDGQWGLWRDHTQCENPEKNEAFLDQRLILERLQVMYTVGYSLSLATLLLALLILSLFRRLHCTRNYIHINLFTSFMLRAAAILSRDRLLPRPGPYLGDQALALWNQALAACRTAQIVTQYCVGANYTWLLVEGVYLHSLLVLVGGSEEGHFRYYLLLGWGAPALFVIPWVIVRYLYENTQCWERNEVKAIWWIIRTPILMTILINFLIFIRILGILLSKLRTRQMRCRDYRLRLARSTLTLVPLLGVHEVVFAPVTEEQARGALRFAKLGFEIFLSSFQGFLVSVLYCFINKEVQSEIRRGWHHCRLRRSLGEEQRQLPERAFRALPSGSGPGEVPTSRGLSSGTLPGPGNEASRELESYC

[1] = type: in vivo, NIH/Swiss mice; settings: 30 nmol/kg
Procedure: (§1) In FIG. 3A, bars represent mean±sd, n=6-10. […] Gavage (1.5 g/kg) was given at t=0, Sample was taken at t=30 min. […] In FIG. 3B, points represent mean±sem, n=8-15.
Peptide was injected IP at t=−5 minutes into 4-hour fasted NIH/Swiss female mice. […] In FIG. 17 points represent mean+/−sem. […] Samples were taken at t=60, t=120 and t=180.

[2] = IVGTT duration of action assay (single SC injection before glucose); type: in vivo, rat; settings: compared with 0601GIP3794 (794), dosed at −120 min
Procedure: To determine a duration of action using the IVGTT assay, the sample was injected SC as a single injection at one time point indicated (e.g., t=−240, −120, −60 or −30) prior to administration of glucose. IV glucose was given at t=0.

[3] = type: in vivo, NIH/Swiss mice; settings: 80 nmol/kg, AUC240
Procedure: as §1
Points represent mean±sem.

[4] = read-out: (% Inh 10 nm, GIP-LF Assay)
[5] = read-out: GIP RBA (% Inh 10 nM)

Row | SMILES | inhibition at 0.01 µM (human GIP receptor; [4]) | OGTT/GL (%) [1] | Duration In The Rat IVGTT Assay [2] | inhibition at 0.01 µM (human GIP receptor; [5]) | Basal Glucose Lowering at Peptide Conc. of 80 nmol/kg [3]
1 | CC[C@H](C)[C@H](NC(=O)[C@H](CO)NC(=O)[C@H](Cc1ccc(O)cc1)NC(=O)[C@H](CC(=O)O)NC(=O)[C@H](CO)NC(=O)[C@@H](NC(=O)[C@H](Cc1ccccc1)NC(=O)[C@@H](NC(=O)CNC(=O)[C@H](CCC(=O)O)NC(=O)[C@@H](C)NC(=O)[C@@H](N)Cc1ccc(O)cc1)[C@@H](C)O)[C@@H](C)CC)C(=O)N[C@@H](C)C(=O)N[C@@H](CCSC)C(=O)N[C@@H](CC(=O)O)C(=O)N[C@@H](CCCCN)C(=O)N[C@H](C(=O)N[C@@H](Cc1c[nH]cn1)C(=O)N[C@@H](CCC(N)=O)C(=O)N[C@@H](CCC(N)=O)C(=O)N[C@@H](CC(=O)O)C(=O)N[C@@H](Cc1ccccc1)C(=O)N[C@H](C(=O)N[C@@H](CC(N)=O)C(=O)N[C@@H](Cc1c[nH]c2ccccc12)C(=O)N[C@@H](CC(C)C)C(=O)N[C@@H](CC(C)C)C(=O)N[C@@H](C)C(=O)N[C@@H](CCC(N)=O)C(=O)N[C@@H](CCCCN)C(=O)N1CCC[C@H]1C(=O)N[C@@H](CCC(N)=O)C(=O)N[C@@H](CCCCN)C(=O)N[C@H](C(=O)N[C@@H](CCCNC(=N)N)C(=O)N[C@@H](Cc1ccc(O)cc1)C(=O)N[C@@H](CO)C(N)=O)[C@@H](C)CC)C(C)C)[C@@H](C)CC [Compound 0601GIP4853] | 91% | −25, % | <794@ −120 min |  | 
2 | CC[C@H](C)[C@H](NC(=O)[C@H](CO)NC(=O)[C@H](Cc1ccc(O)cc1)NC(=O)[C@H](CC(=O)O)NC(=O)[C@H](CO)NC(=O)[C@@H](NC(=O)[C@H](Cc1ccccc1)NC(=O)[C@@H](NC(=O)CNC(=O)[C@H](CCC(=O)O)NC(=O)[C@@H](C)NC(=O)[C@@H](N)Cc1ccc(O)cc1)[C@@H](C)O)[C@@H](C)CC)C(=O)N[C@@H](C)C(=O)N[C@@H](CCSC)C(=O)N[C@@H](CC(=O)O)C(=O)N[C@@H](CCCCN)C(=O)N[C@H](C(=O)N[C@@H](Cc1c[nH]cn1)C(=O)N[C@@H](CCC(N)=O)C(=O)N[C@@H](CCC(N)=O)C(=O)N[C@@H](CC(=O)O)C(=O)N[C@@H](Cc1ccccc1)C(=O)N[C@H](C(=O)N[C@@H](CC(N)=O)C(=O)N[C@@H](Cc1c[nH]c2ccccc12)C(=O)N[C@@H](CC(C)C)C(=O)N[C@@H](CC(C)C)C(=O)N[C@@H](C)C(=O)N[C@@H](CCC(N)=O)C(=O)N[C@@H](CCCCN)C(=O)N1CCC[C@H]1C(=O)N[C@@H](C)C(=O)N[C@@H](CCCCN)C(=O)N[C@H](C(=O)N[C@@H](CCCNC(=N)N)C(=O)N[C@@H](Cc1ccc(O)cc1)C(=O)N[C@@H](CO)C(N)=O)[C@@H](C)CC)C(C)C)[C@@H](C)CC [Compound 0601GIP4815] | 89% | −23, % | <794@ −120 min | 89% | 
3 | CC[C@H](C)[C@H](NC(=O)[C@H](CCCCN)NC(=O)[C@H](CC(=O)O)NC(=O)[C@H](CC(C)C)NC(=O)[C@H](C)NC(=O)[C@@H](NC(=O)[C@H](CO)NC(=O)[C@H](Cc1ccc(O)cc1)NC(=O)[C@H](CC(=O)O)NC(=O)[C@H](CO)NC(=O)[C@@H](NC(=O)[C@H](Cc1ccccc1)NC(=O)[C@@H](NC(=O)CNC(=O)[C@H](CCC(=O)O)NC(=O)[C@@H](C)NC(=O)[C@H](Cc1ccc(O)cc1)NC(=O)[C@@H](N)CC(C)C)[C@@H](C)O)[C@@H](C)CC)[C@@H](C)CC)C(=O)N[C@@H](C)C(=O)N[C@@H](CCC(N)=O)C(=O)N[C@@H](CCC(N)=O)C(=O)N[C@@H](CCC(=O)O)C(=O)N[C@@H](Cc1ccccc1)C(=O)N[C@H](C(=O)N[C@@H](CC(N)=O)C(=O)N[C@@H](Cc1c[nH]c2ccccc12)C(=O)N[C@@H](CC(C)C)C(=O)N[C@@H](CC(C)C)C(=O)N[C@@H](C)C(=O)N[C@@H](CCC(N)=O)C(=O)N[C@@H](CCCCN)C(=O)N1CCC[C@H]1C(=O)N[C@@H](CCCCN)C(=O)N[C@@H](CCCCN)C(=O)N[C@H](C(=O)N[C@@H](CCCNC(=N)N)C(=O)N[C@@H](Cc1ccc(O)cc1)C(=O)N[C@@H](CO)C(N)=O)[C@@H](C)CC)C(C)C [0601GIP4802] | 87.3% | −28, % | <794 @ −120 min | 87.3% | 
4 | CC[C@H](C)[C@H](NC(=O)[C@H](CO)NC(=O)[C@H](Cc1ccc(O)cc1)NC(=O)[C@H](CC(=O)O)NC(=O)[C@H](CO)NC(=O)[C@@H](NC(=O)[C@H](Cc1ccccc1)NC(=O)[C@@H](NC(=O)CNC(=O)[C@H](CCC(=O)O)NC(=O)[C@@H](C)NC(=O)[C@@H](N)Cc1ccc(O)cc1)[C@@H](C)O)[C@@H](C)CC)C(=O)N[C@@H](C)C(=O)N[C@@H](CCSC)C(=O)N[C@@H](CC(=O)O)C(=O)N[C@@H](CCCCN)C(=O)N[C@H](C(=O)N[C@@H](Cc1c[nH]cn1)C(=O)N[C@@H](CCC(N)=O)C(=O)N[C@@H](CCC(N)=O)C(=O)N[C@@H](CC(=O)O)C(=O)N[C@@H](Cc1ccccc1)C(=O)N[C@H](C(=O)N[C@@H](CC(N)=O)C(=O)N[C@@H](Cc1c[nH]c2ccccc12)C(=O)N[C@@H](CC(C)C)C(=O)N[C@@H](CC(C)C)C(=O)N[C@@H](C)C(=O)N[C@@H](CCC(N)=O)C(=O)N[C@@H](CCCCN)C(=O)N1CCC[C@H]1C(=O)N[C@@H](CCCCN)C(=O)N[C@@H](CCCCN)C(=O)N[C@@H](CC(C)C)C(=O)N[C@@H](CCCCN)C(=O)N1CCC[C@H]1C(=O)N[C@@H](CO)C(N)=O)C(C)C)[C@@H](C)CC [Compound 0601GIP4822] | 95.4% | −23, % | <794@ −120 min | 95.4% | 
5 | CC[C@H](C)[C@H](NC(=O)[C@H](CO)NC(=O)[C@H](Cc1ccc(O)cc1)NC(=O)[C@H](CC(=O)O)NC(=O)[C@H](CO)NC(=O)[C@@H](NC(=O)[C@H](Cc1ccccc1)NC(=O)[C@@H](NC(=O)CNC(=O)[C@H](CCC(=O)O)NC(=O)[C@@H](C)NC(=O)[C@@H](N)Cc1ccc(O)cc1)[C@@H](C)O)[C@@H](C)CC)C(=O)N[C@@H](C)C(=O)N[C@@H](CC(C)C)C(=O)N[C@@H](CC(=O)O)C(=O)N[C@@H](CCCCN)C(=O)N[C@H](C(=O)N[C@@H](CCCNC(=N)N)C(=O)N[C@@H](CCC(N)=O)C(=O)N[C@@H](CCC(N)=O)C(=O)N[C@@H](CCC(=O)O)C(=O)N[C@@H](Cc1ccccc1)C(=O)N[C@H](C(=O)N[C@@H](CC(N)=O)C(=O)N[C@@H](Cc1c[nH]c2ccccc12)C(=O)N[C@@H](CC(C)C)C(=O)N[C@@H](CC(C)C)C(=O)N[C@@H](C)C(=O)N[C@@H](CCC(N)=O)C(=O)N[C@@H](CCCCN)C(=O)N1CCC[C@H]1C(=O)N[C@@H](CCCCN)C(=O)N[C@@H](CCCCN)C(=O)N[C@H](C(=O)N[C@@H](CCCNC(=N)N)C(=O)N[C@@H](Cc1ccc(O)cc1)C(=O)N[C@@H](CO)C(N)=O)[C@@H](C)CC)C(C)C)[C@@H](C)CC [0601GIP4539] |  | −12, 30% |  | 98.7% | −5%, AUC240
6 | CC[C@H](C)[C@H](NC(=O)[C@H](CO)NC(=O)[C@H](Cc1ccc(O)cc1)NC(=O)[C@H](CC(=O)O)NC(=O)[C@H](CO)NC(=O)[C@@H](NC(=O)[C@H](Cc1ccccc1)NC(=O)[C@@H](NC(=O)CNC(=O)[C@H](CCC(=O)O)NC(=O)[C@@H](C)NC(=O)[C@@H](N)Cc1ccc(O)cc1)[C@@H](C)O)[C@@H](C)CC)C(=O)N[C@@H](C)C(=O)N[C@@H](CCSC)C(=O)N[C@@H](CC(=O)O)C(=O)N[C@@H](CCCCN)C(=O)N[C@H](C(=O)N[C@@H](Cc1c[nH]cn1)C(=O)N[C@@H](CCC(N)=O)C(=O)N[C@@H](CCC(N)=O)C(=O)N[C@@H](CC(=O)O)C(=O)N[C@@H](Cc1ccccc1)C(=O)N[C@H](C(=O)N[C@@H](CC(N)=O)C(=O)N[C@@H](Cc1c[nH]c2ccccc12)C(=O)N[C@@H](CC(C)C)C(=O)N[C@@H](CC(C)C)C(=O)N[C@@H](C)C(=O)N[C@@H](CCC(N)=O)C(=O)N[C@@H](CCCCN)C(=O)N1CCC[C@H]1C(=O)N[C@@H](CCCCN)C(=O)N[C@@H](CCC(N)=O)C(=O)N[C@H](C(=O)N[C@@H](CCCNC(=N)N)C(=O)N[C@@H](Cc1ccc(O)cc1)C(=O)N[C@@H](CO)C(N)=O)[C@@H](C)CC)C(C)C)[C@@H](C)CC [Compound 0601GIP4854] | 93.5% | −14, % | <794@ −120 min |  | 
7 | CC[C@H](C)[C@H](NC(=O)[C@H](CO)NC(=O)[C@H](Cc1ccc(O)cc1)NC(=O)[C@H](CC(=O)O)NC(=O)[C@H](CO)NC(=O)[C@@H](NC(=O)[C@H](Cc1ccccc1)NC(=O)[C@@H](NC(=O)CNC(=O)[C@H](CCC(=O)O)NC(=O)[C@@H](C)NC(=O)[C@@H](N)Cc1ccc(O)cc1)[C@@H](C)O)[C@@H](C)CC)C(=O)N[C@@H](C)C(=O)N[C@@H](CCSC)C(=O)N[C@@H](CC(=O)O)C(=O)N[C@@H](CCCCN)C(=O)N[C@H](C(=O)N[C@@H](Cc1c[nH]cn1)C(=O)N[C@@H](CCC(N)=O)C(=O)N[C@@H](CCC(N)=O)C(=O)N[C@@H](CC(=O)O)C(=O)N[C@@H](Cc1ccccc1)C(=O)N[C@H](C(=O)N[C@@H](CC(N)=O)C(=O)N[C@@H](Cc1c[nH]c2ccccc12)C(=O)N[C@@H](CC(C)C)C(=O)N[C@@H](CC(C)C)C(=O)N[C@@H](C)C(=O)N[C@@H](CCC(N)=O)C(=O)N[C@@H](CCCCN)C(=O)NCCC(=O)NCCC(=O)N1CCC[C@H]1C(=O)N[C@@H](CCCCN)C(=O)N[C@@H](CCCCN)C(=O)N[C@H](C(=O)N[C@@H](CCCNC(=N)N)C(=O)N[C@@H](Cc1ccc(O)cc1)C(=O)N[C@@H](CO)C(N)=O)[C@@H](C)CC)C(C)C)[C@@H](C)CC [0601GIP4648] |  | −20, 30% |  | 85.1% | −8%, AUC240
